Test results reported in ChEMBL document CHEMBL6153047, “Sulfilimines from a Medicinal Chemist's Perspective: Physicochemical and in Vitro Parameters Relevant for Drug Discovery” (J Med Chem, 2025).
≈ marks a conversion by molar mass, not a printed value.

Assays:
[1] = Permeability across apical to basal side in human Caco-2 cells measured upto 2 hrs; assay type: ADME, cell-based; conditions: caco-2, 2 h
[2] = Chemical stability assessed as compound decomposition at pH 10 and 40 degreeC measured after 3 days by HPLC-UV analysis; assay type: physicochemical; conditions: buffer, time 3 day, read-out: Drug degradation
[3] = Stability in human hepatocytes assessed as hepatic extraction ratio at 1 uM incubated for 6 hrs by HPLC-MS/MS analysis; assay type: ADME, cell-based, Hepatocyte; conditions: read-out: ERH
[4] = Lipophilicity, logD of compound at pH 7.4 by UPLC-UV-MS analysis; assay type: physicochemical; conditions: buffer
[5] = Aqueous solubility of compound at pH 6.8 incubated for 24 hrs by LC-UV analysis; assay type: physicochemical; conditions: buffer, pH 6.8, 24 h
[6] = Chemical stability assessed as compound decomposition at pH 7.4 and 40 degreeC measured after 3 days by HPLC-UV analysis; assay type: physicochemical; conditions: buffer, time 3 day, read-out: Drug degradation
[7] = Efflux ratio in human Caco-2 cells measured upto 2 hrs; assay type: ADME, cell-based; conditions: caco-2, 2 h
[8] = Stability in human liver microsomes assessed as hepatic extraction ratio at 1 uM preincubated with compound followed by NADPH addition by LC-MS/MS analysis; assay type: ADME, Microsome; conditions: read-out: ERH
[9] = Chemical stability assessed as compound decomposition at pH 1 and 40 degreeC measured after 3 days by HPLC-UV analysis; assay type: physicochemical; conditions: buffer, time 3 day, read-out: Drug degradation
[10] = Stability in mouse liver microsomes assessed as hepatic extraction ratio at 1 uM preincubated with compound followed by NADPH addition by LC-MS/MS analysis; assay type: ADME, Microsome; conditions: read-out: ERH
[11] = Chemical stability assessed as compound decomposition at pH 4 and 40 degreeC measured after 3 days by HPLC-UV analysis; assay type: physicochemical; conditions: buffer, time 3 day, read-out: Drug degradation
[12] = Dissociation constant, pKa of compound by UV spectroscopy; assay type: physicochemical
[13] = Protein binding in human plasma at 1 uM incubated for 5 hrs by rapid equilibrium dialysis; assay type: ADME, cell-free
[14] = Apparent permeability of compound incubated for 5 hrs by PAMPA assay; assay type: ADME

Compound	permeability [1]	degraded at 72 h [2] [%]	hepatic extraction ratio at 6 h, 1 µM [3]	logD [4]	solubility [5] [µg/mL]	degraded at 72 h [6] [%]	Ratio [7]	hepatic extraction ratio at 1 µM [8]	degraded at 72 h [9] [%]	hepatic extraction ratio at 1 µM [10]	degraded at 72 h [11] [%]	logD ([4]; read-out: logD)	pKa [12]	PPB [13] [%]	Papp at 5 h [14] [×10⁻⁶ cm/s]
COC(=O)/N=S(\c1ccc(C(F)(F)F)cc1)C1CC1 (stereo unspecified)	88 10^-6 cm/s	11	0.29	2.1	26 (≈ 89.3 µM)	10	0.8	< 0.23	27	0.38	10	–	–	–	–
COC(=O)C(C(=O)OC)=S(NC(=O)C(C)(C)C)c1ccccc1 (stereo unspecified)	> 10 10^-6 cm/s	7	–	2.5	> 76	6	< 1	> 0.89	58	0.63	< 0.1	–	–	–	–
Cc1ccc(S(=N)C2CC2)cc1 (stereo unspecified)	–	7	0.57	–	27 (≈ 151 µM)	0.5	0.7	< 0.23	8	< 0.23	3	0.3	10.9	–	–
Cc1ccc(S(=O)(=NC(=O)C(C)(C)C)c2ccccc2)cc1 (stereo unspecified)	51 10^-6 cm/s	0	0.33	4.2	< 1	0	0.7	0.61	16	> 0.88	0	–	–	–	–
CC(C)(C)C(=O)/N=S(\c1ccc(C(F)(F)F)cc1)C1CC1 (stereo unspecified)	90 10^-6 cm/s	3	0.16	3.5	51 (≈ 161 µM)	4	0.7	< 0.23	0.9	0.59	4	–	–	–	–
Cc1ccc(S(=N)(=O)c2ccccc2)cc1 (stereo unspecified)	93 10^-6 cm/s	< 0.5	0.46	–	> 47	< 0.5	0.8	0.45	< 0.5	0.66	< 0.5	–	2.4	–	–
N=S(c1ccc(C(F)(F)F)cc1)c1cccnc1 (stereo unspecified)	93 10^-6 cm/s	1	0.08	–	49 (≈ 181 µM)	3	0.9	< 0.23	4	0.26	1	–	–	–	–
CS(=O)(=O)c1ccc(C(F)(F)F)cc1	–	–	–	2.3	> 47	–	–	–	–	–	–	–	–	–	–
COc1ccc(/S(=N/C(=O)C(C)(C)C)c2ccc(C)cc2)cc1 (stereo unspecified)	72 10^-6 cm/s	1	0.46	4	59 (≈ 179 µM)	2	0.7	0.44	< 0.5	> 0.88	2	–	–	–	–
CC(=O)/N=S(/c1ccccc1)c1ccc(C)cc1 (stereo unspecified)	85 10^-6 cm/s	4	0.26	2	> 52	4	0.8	< 0.23	22	0.63	5	–	–	–	–
COc1ccc(/S(C)=N\C(=O)C(C)(C)C)cc1 (stereo unspecified)	69 10^-6 cm/s	–	0.58	2	–	–	0.8	0.27	–	0.65	–	–	–	–	–
N#C/N=S(\c1ccc(C(F)(F)F)cc1)C1CC1 (stereo unspecified)	100 10^-6 cm/s	< 0.1	0.18	2.2	42 (≈ 163 µM)	< 0.1	0.7	< 0.23	72	0.43	9	–	–	–	–
CS(=N)(=O)c1ccc(C(F)(F)F)cc1 (stereo unspecified)	–	–	0.08	1.5	> 50	–	–	< 0.23	–	< 0.23	–	–	2.5	–	–
Cc1ccc(S(=O)(=O)c2ccccc2)cc1	39 10^-6 cm/s	–	0.78	3.3	–	–	0.6	–	–	–	–	–	–	–	–
C[S+]([O-])c1ccc(C(F)(F)F)cc1 (stereo unspecified)	130 10^-6 cm/s	–	0.19	1.9	> 46	–	0.8	–	–	–	–	–	–	–	–
Cc1ccc(NC(=O)c2ccc(P(C)(C)=O)cc2)cc1Nc1nccc(-c2cccnc2)n1	–	–	< 0.04	1.4	58 (≈ 127 µM)	–	> 100	< 0.23	–	0.35	–	–	–	83.8	0.043
CC(=O)/N=S(\c1ccc(C(F)(F)F)cc1)C1CC1 (stereo unspecified)	85 10^-6 cm/s	8	0.1	1.7	38 (≈ 138 µM)	7	0.7	< 0.23	20	< 0.23	8	–	–	–	–
CCOC(=O)/C(=S(/NC(=O)C(C)(C)C)c1ccccc1)P(=O)(OCC)OCC (stereo unspecified)	25 10^-6 cm/s	< 0.5	–	3	> 87	< 0.5	1.9	> 0.23	57	0.41	< 0.5	–	–	–	–
CCS(=N)c1ccc(C(F)(F)F)cc1 (stereo unspecified)	–	97	0.17	0.7	–	13	0.9	< 0.23	17	< 0.23	5	–	–	–	–
FC(F)(F)c1ccc(/S(=N\c2ccccc2)C2CC2)cc1 (stereo unspecified)	43 10^-6 cm/s	7	0.73	3.5	41 (≈ 133 µM)	9	0.7	> 0.89	80	> 0.88	2	–	7.2	–	–
